Measured values as given in patent US10866241B2, “Method for the prognosis and treatment of cancer metastasis” (Fundació Institut de Recerca Biomèdica (IRB Barcelona), priority 2012, dated 2020).

Columns and labels:
[1] = system: osteoclast differentiation of mouse bone marrow-derived precursor cells; assay: Osteoclast differentiation from bone marrow cells with conditioned medium, TRAP technique; type: cell-based; details: co-incubation with PTHLH antagonist peptide (7-34), 5 μg/ml (FIG. 11c)
Method: b) Assay of osteoclast differentiation from mouse bone marrow-derived precursor cells using conditioned medium originated from MCF7 parental cells or cells over-expressing any of the c-MAF isoforms (short—short isoform and long—long isoform). The number of osteoclasts is measured by means of the TRAP technique (>3 Multinucleated cells).
c) Bone marrow cells treated with 50:50 osteoclast differentiation and conditioned media (CM) parental, c-MAF short and Long-expressing parental cells and BoM2 bone metastatic MCF7 cell derivatives or without CM but with human PTHLH antagonist peptide (7-34)(5 μg/ml), The number of osteoclasts is measured by means of the TRAP technique (Ostoclasts are >3 Multinucleated cells, Highlighted by white arrows) and normalized to control.
Without a direct activity of c-MAF in providing bone metastasis functions to breast cancer cells, c-MAF may instead transcriptionally control the activity of genes promoting homing and bone remodeling capabilities to colonize the bone. PTHLH expression was under the control of c-MAF. An observation confirmed by qPCR analysis (FIG. 11a). Further, patient breast cancer metastasis (GSE14020) growing in the bone retained c-MAF expression compared to metastasis elsewhere (FIG. 11b). Moreover, 77% of metastasis expressing MAF and PTHLH above the average were bone metastasis (FIG. 11b). […]

[2] = system: c-MAF expressing MCF7 breast cancer cells; assay: Bone metastasis of c-MAF expressing MCF7 cells injected intracardiacally, with or without PTHLH-AN; type: in vivo, mouse; details: 6 μg twice a day intraperitoneally in PBS, 47 days, vs PBS control (FIG. 11d,e)
Method: d) Parental, c-MAF short and long-expressing parental cells labeled with the luciferase gene were injected into the left ventricle of mouse and bone colonization was analyzed by in vivo bioluminiscent imaging. The mice injected with c-MAF short and long expressing parental cells were treated or not with PTHLH antagonist peptide (7-34) inoculated intraperitoneally (6 μg/animal) twice a day during the course of the experiment. The plot represents the total photon flux ex vivo at the experiment end point, which reflects the number of metastatic cells per lesion (left panel). Osteolytic bone metastasis lesions are depicted (right panel)
e) X-RAY (CT-scan) images of representative osteolytic lesions per group. […] TRAP positive osteoclast cells (Black) along bone tumor interface from lesions were counted in at least four different fields from each independent mouse and plotted with SD values. […] The statistical differences between groups are evaluated by means of the two-tailed wilcoxon test. […]
To test whether PTHLH mediates c-MAF driven bone metastasis in breast cancer cells, we injected c-MAF expressing MCF7 breast cancer cells intracardiacally and evaluated its capacity to establish and grow bone metastasis in the presence or absence of PTHLH-AN during the span of 47 days. […]

bone metastasis = assay: Prophylactic treatment for bone metastasis in subject with triple negative breast cancer and increased c-MAF; type: in vivo; details: 120 mg SC once monthly for 6 months, then every 3 months for 4 and a half years, with oral calcium and vitamin D
Method: A tumor tissue sample is obtained from a subject diagnosed as having triple negative breast cancer. The sample is sectioned into thin slices of tissue and embedded in paraffin. Each paraffin section is mounted on a slide. The slides are incubated with anti-MAF antibody. For visualization and detection of antibodies bound to MAF, antibodies conjugated with fluorescent dye are used. The slides are visualized by providing excitation beams to the fluorescent dyes. Images of fluorescent signals are taken by fluorescent microscopes. The relative expression level of c-MAF in the tumor sample is obtained by comparing the fluorescent signal in the tumor sample to that of a reference sample. The intensity in the tumor sample is correlated with the intensity in the reference sample, wherein a higher intensity in the tumor sample compared to the reference sample correlates with an increased risk of the subject having primary breast cancer metastasis to the bone. Alternatively, 16q22-24 locus,16q23 locus or c-MAF gene amplification or translocation determined using an in situ hybridization technique or similar
Based on the prognosis of increased risk of bone metastasis, the subject is administered the anti-RANKL antibody Denosumab as a prophylactic treatment for bone metastasis. 120 mg of Denosumab is administered to the subject subcutaneously (SC) once monthly for 6 months. […]

Substance	induction of osteoclast differentiation in vitro by conditioned media from cells expressing c-MAF [1]	extent of the hind limb osteolytic lesions [2]	number of osteoclast (TRAP+ cells) at the metastatic lesion perimeter [2]	evidence of bone metastasis after 5 years (bone metastasis)
PTHLH-AN: human PTHLH antagonist peptide (7-34Aa)	prevented	dramatic reduction	reduction in the number of osteoclast	–
Denosumab: fully human monoclonal antibody which binds to RANKL and prevents its activation, CAS number 615258-40-7	–	–	–	free of any evidence of bone-metastasis
